In PubChem BioAssay AID179 (DTP/NCI, 2004) one finds EC50, IC50 and outcome data, which are given here for 75 molecules.

“And” between values parts separate entries of the source, which are not always exact repeats. Equal entries are not always repeated. The source made the active and inactive calls.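 How the source made its calls: active means compounds giving half or more protection of infected cells from virus-caused growth loss, again on retest; inactive means the rest.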

The test deals with CEM cells HIV-1 protection, formazan growth assay. Kind of test: NCI AIDS Antiviral Assay. Conditions: for IC50: measured here: growth of uninfected CEM cells. An outline of the steps: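 Category rules: moderately active means at least 50% protection on retest, and confirmed active means 100% protection reproducibly. The underlying data came from a formazan growth assay in HIV-1-infected CEM cells.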

Regarding `Cc1ccc(Nc2[nH]c(=O)[nH]c(=O)c2N=O)cc1`, the EC50 was greater than 200 µM and the IC50 was greater than 200 µM.
On to `NC(C(=O)OC(=O)c1ccccc1)C(=O)OC(=O)c1ccccc1`, for which the EC50 is greater than 200 µM and the IC50 stood at 97.7 µM.
Regarding `CCCCc1ccc(OC2OC(COC(C)=O)C(OC(C)=O)C(OC(C)=O)C2OC(C)=O)cc1` (stereo not given), the EC50 was greater than 93.3 µM; the IC50 was 49 µM and > 93.3 µM.
Consider `CCC1=C(OC)c2ncccc2C(=O)C1=O`, for which the result was inactive.
As for `O=S(=O)(c1ccccc1)n1c(C(O)c2ccccc2)cc2ccccc21` (stereo not given), the EC50 was greater than 200 µM and the IC50 was 17.8 µM.
The corresponding values for `CC(C)NC1CCCCC2c3ccccc3C12O` (stereo not given) are 145 µM and greater than 200 µM.
For the molecule `CC12CC3C(CC1SCC(=O)O2)C3(C)C` (stereo not given), the EC50 was greater than 302 µM and the IC50 is greater than 302 µM.
For the molecule `CCC[CH2][Sn]1([CH2]CCC)[N](S(=O)(=O)c2ccc(C)cc2)c2ccccc2[N]1S(=O)(=O)c1ccc(C)cc1`, the EC50 is greater than 2 µM and the IC50 was determined as 0.309 µM.
As to `CC(Nc1cccc(Cl)c1)c1ccncc1` (stereo not given), the EC50 is greater than 200 µM and the IC50 is 95.5 µM.
On to `O=c1c(O)c(O)c1=O.[NH2-].[NH2-].[NH2-].[NH2-].[NH2-].[Ru+5]`, for which the EC50 was greater than 21.4 µM and the IC50 was greater than 21.4 µM.
As to `ClCCC1OC(CCCl)OC(CCCl)O1` (stereo not given), the EC50 was greater than 200 µM and the half-maximal inhibitory concentration (IC50) was greater than 200 µM.
Take `OC12c3ccccc3C1CCCCC2N1CCCC1` (stereo not given): the EC50 is greater than 200 µM and the IC50 is greater than 200 µM.
With `O=C1CS(=O)(=O)C(c2ccc(F)cc2)N1N1C(=O)CS(=O)(=O)C1c1ccc(F)cc1` (stereo not given), the EC50 was greater than 200 µM and the IC50 is greater than 200 µM.
For the molecule `O=c1[nH]c2cc(Cl)ccc2c2ccc(Cl)cc12`, the EC50 was greater than 200 µM and the IC50 was greater than 200 µM.
For the molecule `C=CCc1cc(OC)c(O)c(C(=O)/C=C/c2ccc(OC)c(OC)c2)c1`, the EC50 is greater than 14.8 µM and the half-maximal inhibitory concentration (IC50) was greater than 14.8 µM.
Turning to `NC(CCSCc1ccccc1)P(=O)(O)O` (stereo not given), the EC50 is greater than 200 µM and the IC50 is greater than 200 µM.
For the molecule `Cn1c(CNc2ccc(-c3n[nH]c(=S)n3C)cc2)n[nH]c1=S`, the EC50 was greater than 200 µM and the IC50 is greater than 200 µM.
In the case of `N#C/C(=C/c1ccco1)C(=O)c1ccccc1`, the EC50 was greater than 162 µM and the IC50 is greater than 162 µM.
As to `CCCCn1c2ccccc2c2ccc3c(c21)C(=O)C=CC3=O`, the EC50 is greater than 17.4 µM and the IC50 is greater than 17.4 µM.
Turning to `FC(F)(F)C1(C(F)(F)F)C2CCC3(CC(F)(F)C(F)(F)S3)C1C2` (stereo not given), the EC50 was greater than 200 µM and the IC50 is greater than 200 µM.
As for `CCOC(F)(F)/C=C/c1ccccc1`, the result was inactive.
With `Cc1cccc(NC(=O)c2cc3cc(N=Nc4ccccc4Cl)ccc3oc2=O)c1`, the EC50 is greater than 24 µM and the IC50 was greater than 24 µM.
Take `CCOC(=O)C(CCC1OCCO1)C(C)=O` (stereo not given): the EC50 was greater than 200 µM and the IC50 is greater than 200 µM.
As for `COc1ccc(OC)c2c1C1CCC(=O)N1CN2C(C)=O` (stereo not given), the outcome was inactive.
Take `CCCCc1ccc(Nc2nc(Cl)c3[nH]cnc3n2)cc1`: the EC50 is greater than 200 µM and the IC50 is 26.3 µM.
As to `CC1CC(C)(C)OB(OC(C)CC(C)(C)OB2OC(C)CC(C)(C)O2)O1` (stereo not given), the EC50 is greater than 200 µM and the IC50 was greater than 200 µM.
Consider `CCCC1(CCCNC(=O)c2ccccc2)OCc2ccccc2CO1`, for which the EC50 is greater than 513 µM and the concentration for half-maximal inhibition (IC50) is greater than 513 µM.
For the molecule `CCCCOCOc1ccccc1P1(=O)COc2ccccc2OC1`, the EC50 was greater than 200 µM and the IC50 turned out to be 44.7 µM.
Turning to `O=C1CCCCC1CN1CCCC1` (stereo not given), the outcome was inactive.
Molecule `O=[N+]([O-])c1cccc(C2c3ccccc3Oc3ccccc32)c1` gave an EC50 greater than 200 µM and an IC50 of 19.1 µM.
Regarding `NC(=S)N/N=C1/CN(c2ccc(Cl)c(Cl)c2)CC(=O)C1c1nc2ccccc2s1` (stereo not given), the outcome was inactive.
`Cc1ccccc1N=CN(C)C`: the EC50 is greater than 200 µM and the IC50 came to 42.7 µM.
For the molecule `C/C(=N/NC(=S)Nc1cccc(Cl)c1)c1ccccn1`, the EC50 was greater than 0.2 µM and the IC50 came out at 0.0851 µM.
As for `N#CCCN(CCC#N)c1ccc(/C=C(\NC(=O)c2cc([N+](=O)[O-])ccc2Cl)C(=O)Nc2ccccc2)cc1`, the EC50 is greater than 13.2 µM and the IC50 was greater than 13.2 µM.
In the case of `COC(=O)C1(O)C(c2ccccc2)=NC2(C)CCCC21` (stereo not given), the EC50 was greater than 200 µM and the IC50 is greater than 200 µM.
Take `CC(C)(C)OC(=O)N[C@H]1CC(O)c2ccccc2N(CC(=O)O)C1=O` (stereo not given in full): the EC50 was greater than 251 µM and the IC50 is greater than 251 µM.
Consider `Cc1ccc(N=Nc2c(C)n(-c3ccc4scnc4c3)c(=S)n(-c3ccccc3)c2=O)cc1`, for which the EC50 was greater than 75.9 µM and the IC50 is greater than 75.9 µM.
For the molecule `COc1ccc(C(CC(=O)c2ccccc2)C(=O)c2ccc3c(c2)OCO3)cc1` (stereo not given), the EC50 is greater than 200 µM and the half-inhibitory concentration (IC50) was greater than 200 µM.
`Cc1c(-c2c(C)c(=O)c3c(C(C)C)c(=O)c(=O)c(C=O)c-3c2=O)c(O)c2c(C=O)c(O)c(O)c(C(C)C)c2c1O`: the EC50 is greater than 13.2 µM and the IC50 turned out to be 7.08 µM.
For `COc1ccc(CN=C(N)N)c2ccccc12`, the EC50 was greater than 200 µM and the IC50 worked out at 5.13 µM.
For the molecule `CC1CCc2c(sc3ncnc(N/N=C/c4ccc(Cl)cc4)c23)C1` (stereo not given), the EC50 is greater than 14.5 µM and the IC50 is greater than 14.5 µM.
Consider `COc1cccc(C2c3cc4c(cc3OC(N3CCOCC3)C2C)OCO4)c1OC` (stereo not given), for which the EC50 was greater than 200 µM and the IC50 is 1.7 µM.
Turning to `COc1cc2c3cc1Oc1c(OC)c(OC)cc4c1[C@@H](Cc1ccc(O)c(c1)Oc1ccc(cc1)C[C@@H]3N(C)CC2)N(C)CC4`, the outcome was inactive.
In the case of `CCOC(=O)C(=O)NCCCN1CCOCC1`, the EC50 was greater than 1020 µM and the IC50 was greater than 1020 µM.
In the case of `N#CCCN(c1ccc(-c2nnc(NC(=O)CNNC(=O)CC(=O)Nc3ccccc3)s2)cc1)S(=O)(=O)c1ccccc1`, the EC50 was greater than 41.7 µM and the IC50 is greater than 41.7 µM.
In the case of `COc1ccc(Br)c(C=Nc2cccc3cc(OC)c(OC)cc23)c1`, the result was inactive.
For `CCOC(=O)CCC1(C)OCC(COC)O1` (stereo not given), the EC50 was greater than 200 µM and the IC50 was greater than 200 µM.
On to `Cn1c2c(c3ccccc31)CCN1C(=O)CCC21` (stereo not given), for which the EC50 is greater than 537 µM and the IC50 came out at 288 µM.
Turning to `CC1C2c3ccccc3C(c3ccccc32)C1CN1C(CCO)COC1c1ccccc1` (stereo not given), the EC50 is greater than 200 µM and the 50% inhibitory concentration (IC50) was found to be 38 µM.
On to `Cc1c(Cl)cccc1NC(=O)C(=O)C(C(=O)c1ccccc1-c1ccccc1)C1OC(=O)c2ccccc21` (stereo not given), for which the EC50 is greater than 69.2 µM and the IC50 came to 26.3 µM.
As to `CCCCCCCCCCC(c1cc(Cl)c(O)c(C(=O)O)c1)c1cc(Cl)c(O)c(C(=O)O)c1`, the EC50 was greater than 1480 µM and the IC50 turned out to be 79.4 µM.
Take `CC(NP(=O)(c1ccccc1)c1ccccc1)c1ccccc1` (stereo not given): the EC50 was greater than 200 µM and the IC50 is greater than 200 µM.
For the molecule `CSC1=N/C(=C\c2ccccc2)C(=O)N1CN1CCCCC1`, the EC50 was greater than 200 µM and the IC50 was found to be 115 µM.
For the molecule `NC1CC=C(COC(=O)C(O)(c2ccccc2)C2CC2)CC1` (stereo not given), the EC50 is greater than 200 µM and the 50% inhibitory concentration (IC50) is greater than 200 µM.
For `O=c1cc(N2CCCC2)[nH]c(=O)n1Cc1ccccc1`, the outcome was inactive.
Regarding `CCOC(=O)c1cc(C2CCN(Cc3ccccc3)C2=O)c(C(=O)C(=[N+]=[N-])C(C)=O)[nH]1` (stereo not given), the EC50 was greater than 200 µM and the IC50 is greater than 200 µM.
Regarding `O=CN(c1ccccc1)c1c([N+](=O)[O-])cc([N+](=O)[O-])c2c1=NCN=2`, the EC50 was greater than 79.4 µM and the IC50 was greater than 79.4 µM.
With `CCOC(=O)/C(SC#N)=C(/N)N1CCCC1`, the EC50 is greater than 200 µM and the half-inhibitory concentration (IC50) is greater than 200 µM.
On to `CN(/N=C/c1cccc2cccnc12)c1c([N+](=O)[O-])cc([N+](=O)[O-])cc1[N+](=O)[O-]`, for which the outcome was inactive.
Turning to `COc1ccc(N=NC(=O)NC(CC(C)C)C(=O)NC(Cc2ccccc2)C(=O)O)cc1` (stereo not given), the EC50 is greater than 200 µM and the IC50 was found to be 3.09 µM.
The corresponding values for `CC(=O)NC1=N/C(=C\c2ccc(Cl)cc2)C(=O)N1/C=C1\C(=O)Oc2ccccc2C1=O` are greater than 200 µM and 87.1 µM.
In the case of `CC(C)(C)OC(=O)C1=C2C=C(O)C=CC2(C)N(Cc2ccccc2)C1=N` (stereo not given), the EC50 was greater than 2 µM and the IC50 stood at 0.741 µM.
As for `CCC(C=O)P1(=O)OC(C)(C)CN1C(C)(C)C` (stereo not given), the EC50 was greater than 200 µM and the half-maximal inhibitory concentration (IC50) amounted to 64.6 µM.
For `CN1C2CC(=O)CC1[C@H](O)[C@@H]2O`, the EC50 was greater than 200 µM and the IC50 is greater than 200 µM.
Consider `CCCCC#COS(=O)(=O)c1ccc(C)cc1`, for which the EC50 was greater than 251 µM and the IC50 was 138 µM.
The corresponding values for `NCCCCN(CCCN)Cc1ccc2ccccc2c1` are greater than 200 µM and 72.4 µM.
In the case of `O=C1/C(=C/c2ccccc2)CN(C(=O)/C=C/c2ccccc2)C/C1=C\c1ccccc1`, the EC50 was greater than 100 µM and the IC50 amounted to 14.5 µM.
For `O=[N+]([O-])c1ccccc1S(=O)(=O)Oc1ccc(Cl)cc1`, the outcome was active.
With `CC1=C2c3c(C)ccc4ccc(C)c(c34)C2(O)C(C)C1=O` (stereo not given), the EC50 was greater than 200 µM and the IC50 was greater than 200 µM.
`N#CN/C(N)=N/S(=O)(=O)c1ccc([N+](=O)[O-])cc1`: the EC50 is greater than 933 µM and the IC50 was found to be 257 µM.
Take `CC(=O)Nc1ccc2cc3[nH]c4cc(NC(C)=O)ccc4c3nc2c1`: the EC50 was greater than 200 µM and the IC50 worked out at 17.8 µM.
The corresponding values for `CC1NC(/C(=C/c2ccccc2O)NC(=O)c2ccccc2)OC1=O` (stereo not given) are greater than 50.1 µM and greater than 50.1 µM.
In the case of `C=C1CC(COc2cc(Cl)nc(N)n2)C1`, the EC50 is greater than 200 µM and the half-maximal inhibitory concentration (IC50) is 24.5 µM.
Regarding `CC(C)COC(=O)N1N=NC2C3CC(=O)C(O3)C21` (stereo not given), the EC50 was greater than 708 µM and the concentration for half-maximal inhibition (IC50) came out at 123 µM.
The corresponding values for `O=C1CCOc2cc(ccc2O)CCN1` are greater than 200 µM and greater than 200 µM.
